This note sets out measurements from patent publication US20130029991A1, “New Phenylsulfamoyl Benzamide Derivatives as Bradykinin Antagonists” (priority 2006, published 2013).

Where a name gives a salt, the structure may show the parent alone.

Experiment [1] concerns the target T1, recombinant human B1 receptors (Homo sapiens, UniProt P46663).
T1 construct: host or cells: CHO (CHO-B1)
T1 sequence (P46663 1-353): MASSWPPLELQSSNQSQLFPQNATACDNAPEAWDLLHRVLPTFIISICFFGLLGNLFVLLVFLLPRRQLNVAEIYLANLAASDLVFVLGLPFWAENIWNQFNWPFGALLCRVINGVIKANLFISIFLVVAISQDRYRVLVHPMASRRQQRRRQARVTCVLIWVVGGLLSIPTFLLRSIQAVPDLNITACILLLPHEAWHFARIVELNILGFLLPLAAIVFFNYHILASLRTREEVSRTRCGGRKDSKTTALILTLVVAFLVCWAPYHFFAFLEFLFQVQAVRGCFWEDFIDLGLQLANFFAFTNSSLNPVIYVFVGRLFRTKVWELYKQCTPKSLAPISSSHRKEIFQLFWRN
Briefly: Functional assay: antagonist potency by cytosolic calcium measurement (fluo-4, plate reader fluorimeter) in CHO-B1 cells. It counts as cell-based. Conditions: CHO-B1 cells, inhibition of LysDABK (EC80)-evoked [Ca2+]i elevation; read-out: B1 func. The protocol:
Assessment of Antagonist Potency at B1 and B2 Receptors In Vitro by Measurement of Cytosolic Calcium Ion Concentration with a Plate Reader Fluorimeter in Cells Expressing Recombinant Human B1 or B2 Receptors
Chinese hamster ovary (CHO) cells stably expressing recombinant human B1 (CHO-B1, Euroscreen) or B2 (CHO-B2, Perkin-Elmer) receptors were cultured in Dulbecco's Modified Eagle's Medium (DMEM) containing 10% Fetal Calf Serum (FCS), 100 U/ml penicillin, 0.1 mg/ml streptomycin, 0.25 μg/ml amphotericin B, 1% Minimum Essential Medium Eagle (MEM), non essential amino acid solution, […], 1% pyruvate (for the B2 cell line). Cells were kept at 37° C. in a humidified incubator in an atmosphere of 5% CO2/95% air and were passaged 1:4 three times a week. Cells were plated at 1.5-2.5×10^4 cell/well on standard 96-well microplates, measurements of cytosolic calcium ion concentration ([Ca^2+]i) were carried out 1-2 days after cell plating.
Measurements of [Ca^2+]i were carried out on CHO-B1 and CHO-B2 cells stably expressing human B1 and B2 receptors, respectively. Cells were grown in standard 96-well microplates and before the measurement were loaded with a fluorescent Ca^2+-sensitive dye, fluo-4/AM (2 μM): after removing the culture medium the dye was added to the cells (dissolved in assay buffer: 145 mM NaCl, 5 mM KCl, 2 mM MgCl2, 2 mM CaCl2, 10 mM HEPES, 20 mM D-glucose, 2 mM probenecid, 100 μl/well) and cells were incubated at 37° C. in a humidified incubator in an atmosphere of 5% CO2/95% air for 40-120 min. To stop dye loading cells were washed twice with assay buffer. After washing, various concentrations of the test compounds (diluted in extracellular medium from a DMSO stock solution, final DMSO concentration was <0.1%) or buffer were added to each well depending on the experimental setup. After incubation at 37° C. for 20-25 min. baseline and agonist-evoked changes of [Ca^2+]i were measured column by column with a plate reader fluorimeter (Fluoroskan Ascent, Labsystems). Excitation and detection of emission was carried out from the bottom of the plate. Filters used for Fluo-4: excitation filter—485 nm, emission filter—538 nm. The whole measurement process was performed at 37° C. and was controlled by custom software Inhibitory potency of the test compounds was assessed by measuring the reduction in the agonist-evoked [Ca^2+]i-elevation in the presence of different concentrations of the compounds. The agonists were LysDABK for CHO-B1, and bradykinin for CHO-B2 cells. Agonists were applied at an EC80 concentration, the EC80-values were derived from daily determined dose-response curves. Fluorescence data were expressed as ΔF/F (fluorescence change normalized to baseline). All treatments on a single plate were measured in multiple wells. Data from all wells with the same treatment were averaged and the average values were used for analysis. Inhibitory potency of a compound at a single concentration point was expressed as percent inhibition of the control agonist response. Sigmoidal concentration-inhibition curves were fitted to the data (derived from at least three independent experiments) and IC50-values were determined as the concentration that produces half of the maximal inhibition caused by the compound.

Experiment [2] addresses T2, human recombinant bradykinin B1 receptor (Homo sapiens, UniProt P46663).
T2 construct: host or cells: CHO cells
T2 sequence (P46663 1-353): T1 sequence (P46663 1-353)
Briefly: Human recombinant bradykinin B1 receptor binding. Conditions: CHO cell membranes, [3H]-[Des-Arg10] Kallidin radioligand; read-out: B1 binding. The protocol: 1. Human Recombinant Bradykinin B1 Receptor Binding
Binding assays were carried out on human recombinant bradykinin) receptors (expressed in CHO cells) according to the Euroscreen Technical Data Sheet (Cat.No.:ES-091). 20 μg protein/tube was incubated with [3,4-prolyl-3,4-^3H(N)]-[Des-Arg^10] Kallidin as radioligand. Non specific binding was determined in the presence of 10 μM Lys-des-Arg^9-Bradykinin. The final incubation volume was 250 μl. Samples were incubated for 15 min. at 25° C. then were rapidly vacuum filtered through GF/B filters presoaked for at least 1 h in 0.5% PEI. Radioactivity was determined by liquid scintillation spectroscopy.

For the compound `CN(C)CCCNC(=O)CNC(=O)c1ccc(S(=O)(=O)Nc2ccccc2Oc2ccccc2)cc1` [Example 54, N-[(3-Dimethylamino-propylcarbamoyl)-methyl]-4-(2-phenoxy-phenylsulfamoyl)-benzamide], in experiment [1], the IC50 was below 20 nM. The Ki in experiment [2] is below 20 nM.
For `O=C(CNC(=O)c1ccc(S(=O)(=O)Nc2ccccc2Oc2ccc(Cl)cc2Cl)cc1)NCCCN1CCCCC1` [Example 2, 4-[2-(2,4-Dichloro-phenoxy)-phenylsulfamoyl]-N-[(3-piperidin-1-yl-propylcarbamoyl)-methyl]-benzamide], the IC50 in experiment [1] is below 20 nM. Besides, the Ki in experiment [2] is below 20 nM.
For the compound `O=C(CNC(=O)c1ccc(S(=O)(=O)Nc2ccccc2Oc2ccc(Cl)cc2Cl)cc1)NCCCn1ccnc1` [Example 29, 4-[2-(2,4-Dichloro-phenoxy)-phenylsulfamoyl]-N-[(3-imidazol-1-yl-propylcarbamoyl)-methyl]-benzamide], the IC50 in experiment [1] is below 20 nM. For the same compound, in experiment [2], the Ki was below 20 nM.
With `O=C(CNC(=O)c1ccc(S(=O)(=O)Nc2ccccc2Nc2ccccc2)cc1)NCC1CCNCC1` [Example 103, 4-(2-Phenylamino-phenylsulfamoyl)-N-{[(piperidin-4-ylmethyl)-carbamoyl]-methyl}-benzamide hydrochloride], the Ki in experiment [2] was below 20 nM.
Take `CC1CCCCN1CCCNC(=O)CNC(=O)c1ccc(S(=O)(=O)Nc2ccccc2Oc2ccccc2)cc1` (centres unmarked) [Example 56, N-{[3-(2-Methyl-piperidin-1-yl)-propylcarbamoyl]-methyl}-4-(2-phenoxy-phenylsulfamoyl)-benzamide]: in experiment [1], the IC50 was below 20 nM. Besides, the Ki in experiment [2] is below 20 nM.
As to `COc1ccc(NS(=O)(=O)c2ccc(C(=O)NCC(=O)NCC3CCNCC3)cc2)c(Oc2ccc(Cl)cc2Cl)c1` [Example 11, 4-[2-(2,4-Dichloro-phenoxy)-4-methoxy-phenylsulfamoyl]-N-{[(piperidin-4-ylmethyl)-carbamoyl]-methyl}-benzamide hydrochloride], the IC50 in experiment [1] fell in the range of 20 to 100 nM. The Ki in experiment [2] fell in the range of 20 to 100 nM.
In the case of `O=C(CNC(=O)c1ccc(S(=O)(=O)Nc2ccccc2Oc2ccc(Cl)cc2Cl)cc1)NC1CCC(N2CCCCC2)CC1` (centres unmarked) [Example 62, 4-[2-(2,4-Dichloro-phenoxy)-phenylsulfamoyl]-N-[(4-piperidin-1-yl-cyclohexyl-carbamoyl)-methyl]-benzamide], in experiment [1], the IC50 is below 20 nM. For the same compound, the Ki in experiment [2] is below 20 nM.
In the case of `O=C(CNC(=O)c1ccc(S(=O)(=O)Nc2ccccc2Oc2ccc(Cl)cc2Cl)cc1)NC1CCNCC1` [Example 60, 4-[2-(2,4-Dichloro-phenoxy)-phenylsulfamoyl]-N-(piperidin-4-ylcarbamoylmethyl)-benzamide hydrochloride], in experiment [1], the IC50 is below 20 nM. Also, the Ki in experiment [2] is below 20 nM.
Consider `CC1CCCCN1CCCNC(=O)CNC(=O)c1ccc(S(=O)(=O)Nc2ccccc2Oc2ccc(Cl)cc2Cl)cc1` (centres unmarked) [Example 28, 4-[2-(2,4-Dichloro-phenoxy)-phenylsulfamoyl]-N-{[3-(2-methyl-piperidin-1-yl)-propylcarbamoyl]-methyl}-benzamide], for which, in experiment [1], the IC50 is below 20 nM. Also, the Ki in experiment [2] is below 20 nM.
As for `O=C(CNC(=O)c1ccc(S(=O)(=O)Nc2ccccc2Oc2ccccc2)cc1)NCCC1CCNCC1` [Example 10, 4-(2-Phenoxy-phenylsulfamoyl)-N-[(2-piperidin-4-yl-ethylcarbamoyl)-methyl]-benzamide hydrochloride], the IC50 in experiment [1] is below 20 nM. For the same compound, the Ki in experiment [2] was below 20 nM.
With `O=C(CNC(=O)c1ccc(S(=O)(=O)Nc2ccccc2Oc2ccc(Cl)cc2Cl)cc1)NCCN1CCOCC1` [Example 30, 4-[2-(2,4-Dichloro-phenoxy)-phenylsulfamoyl]-N-[(2-morpholin-4-yl-ethylcarbamoyl)-methyl]-benzamide], the IC50 in experiment [1] is below 20 nM. In experiment [2], the Ki is below 20 nM.
Consider `CN(CCc1ccncc1)C(=O)CNC(=O)c1ccc(S(=O)(=O)Nc2ccccc2Oc2ccc(Cl)cc2Cl)cc1` [Example 43, 4-[2-(2,4-Dichloro-phenoxy)-phenylsulfamoyl]-N-{[methyl-(2-pyridin-4-yl-ethyl)-carbamoyl]-methyl}-benzamide], for which the Ki in experiment [2] was below 20 nM.
Consider `O=C(CNC(=O)c1ccc(S(=O)(=O)Nc2ccccc2Oc2ccc(Cl)cc2Cl)cc1)NCCCC1CCNCC1` [Example 61, 4-[2-(2,4-Dichloro-phenoxy)-phenylsulfamoyl]-N-[(3-piperidin-4-yl-propylcarbamoyl)-methyl]-benzamide hydrochloride], for which the IC50 in experiment [1] is below 20 nM. Also, in experiment [2], the Ki was below 20 nM.
Consider `O=C(CNC(=O)c1ccc(S(=O)(=O)Nc2ccccc2Oc2ccccc2)cc1)NCC1CCNCC1` [Example 5, 4-(2-Phenoxy-phenylsulfamoyl)-N-{[(piperidin-4-ylmethyl)-carbamoyl]-methyl}-benzamide hydrochloride], for which the IC50 in experiment [1] is 20 to 100 nM. Further, the Ki in experiment [2] lay in the range of 20 to 100 nM.
On to `O=C(CNC(=O)c1ccc(S(=O)(=O)Nc2ccccc2Oc2ccccc2)cc1)N[C@H]1CC[C@H](CCN2CCCC2)CC1` [Example 50, trans-4-(2-Phenoxy-phenylsulfamoyl)-N-{[4-(2-pyrrolidin-1-yl-ethyl)-cyclohexyl-carbamoyl]-methyl}-benzamide], for which the IC50 in experiment [1] was below 20 nM. Moreover, the Ki in experiment [2] was below 20 nM.
In the case of `O=C(CNC(=O)c1ccc(S(=O)(=O)Nc2ccccc2Oc2ccc(Cl)cc2Cl)cc1)NCC1CCNCC1` [Example 1, 4-[2-(2,4-Dichloro-phenoxy)-phenylsulfamoyl]-N-{[(Piperidin-4-ylmethyl)-carbamoyl]-methyl}-benzamide hydrochloride], in experiment [1], the IC50 is below 20 nM. The Ki in experiment [2] is below 20 nM.
As to `O=C(CNC(=O)c1ccc(S(=O)(=O)Nc2ccccc2Oc2ccc(Br)cc2)cc1)NCC1CCNCC1` [Example 3, 4-[2-(4-Bromo-phenoxy)-phenylsulfamoyl]-N-{[(piperidin-4-ylmethyl)-carbamoyl]-methyl}-benzamide trifluoroacetate], the IC50 in experiment [1] is below 20 nM. The Ki in experiment [2] is below 20 nM.
`N#CCc1ccc(NC(=O)CNC(=O)c2ccc(S(=O)(=O)Nc3ccccc3Oc3ccccc3)cc2)cc1` [Example 73, N-[(4-Cyanomethyl-phenylcarbamoyl)-methyl]-4-(2-phenoxy-phenylsulfamoyl)-benzamide]: the Ki in experiment [2] was below 20 nM.
The same measure, in the same setting: next, `O=C(CNC(=O)c1ccc(S(=O)(=O)Nc2ccccc2Oc2ccc(Cl)cc2Cl)cc1)NCCCCC1CCNCC1` [Example 59, 4-[2-(2,4-Dichloro-phenoxy)-phenylsulfamoyl]-N-[(4-piperidin-4-yl-butylcarbamoyl)-methyl]-benzamide hydrochloride]: below 20 nM; `CN(C)CC(C)(C)CNC(=O)CNC(=O)c1ccc(S(=O)(=O)Nc2ccccc2Oc2ccc(Cl)cc2Cl)cc1` [Example 35, 4-[2-(2,4-Dichloro-phenoxy)-phenylsulfamoyl]-N-[(3-dimethylamino-2,2-dimethyl-propylcarbamoyl)-methyl]-benzamide]: below 20 nM.
